Source: ChEMBL document CHEMBL3822432, “Antibacterial and anticancer activity of a series of novel peptides incorporating cyclic tetra-substituted C(α) amino acids” (Bioorg Med Chem, 2016)
Converted amounts (≈) assume the structure as drawn. Non-standard residues stand in square brackets, D forms with d. Residues, ends and D or L forms follow the SMILES beside them. Ac6c = NC1(C(=O)O)CCCCC1; Ac5c = NC1(C(=O)O)CCCC1

Tests used:
Streptococcus pneumoniae = experiment: Antibacterial activity against Streptococcus pneumoniae 262 ATCC 49619 by two fold serial dilution method; type: functional
[1] = Antibacterial activity against Clostridium difficile VIP 10463 ATCC 43255 by two fold serial dilution method; type: functional, Clostridium difficile ATCC 43255; conditions: Clostridioides difficile
Staphylococcus aureus [2] = experiment: Antibacterial activity against methicillin-resistant Staphylococcus aureus USA 300 NRS 384 by two fold serial dilution method; type: functional
CFPAC-1 = experiment: Antiproliferative activity against human CFPAC-1 cells after 72 hrs by Celltiter-Glo luminescent cell viability assay; type: functional, cell-based; conditions: CFPAC-1, 72 h
A549 = experiment: Antiproliferative activity against human A549 cells after 72 hrs by Celltiter-Glo luminescent cell viability assay; type: functional, cell-based; conditions: A549, 72 h
[3] = Antibacterial activity against Salmonella enterica LT2 Typhimurium ATCC 15277 by two fold serial dilution method; type: functional
Pseudomonas aeruginosa = experiment: Antibacterial activity against Pseudomonas aeruginosa Boston 41501 ATCC 27853 by two fold serial dilution method; type: functional
Klebsiella aerogenes = experiment: Antibacterial activity against carbapenem-resistant Enterobacter aerogenes NCDC819-56 ATCC 13048 by two fold serial dilution method; type: functional
[4] = Antiproliferative activity against human PC3 cells after 72 hrs by Celltiter-Glo luminescent cell viability assay; type: functional, cell-based; conditions: PC-3, 72 h
A498 = experiment: Antiproliferative activity against human A498 cells after 72 hrs by Celltiter-Glo luminescent cell viability assay; type: functional, cell-based; conditions: A498, 72 h
[5] = Antiproliferative activity against human IGROV1 cells after 72 hrs by Celltiter-Glo luminescent cell viability assay; type: functional, cell-based; conditions: IGROV-1, 72 h
[6] = Antiproliferative activity against human DLD1 cells after 72 hrs by Celltiter-Glo luminescent cell viability assay; type: functional, cell-based; conditions: DLD-1, 72 h
[7] = Antibacterial activity against Yersinia pestis CO92 NR641 by two fold serial dilution method; type: functional
[8] = test system: Mycobacterium tuberculosis; experiment: Antibacterial activity against Mycobacterium tuberculosis H37Ra ATCC 2517 by two fold serial dilution method; type: functional
[9] = test system: Burkholderia pseudomallei; experiment: Antibacterial activity against Burkholderia pseudomallei AHS 1 NCTC 8016 by two fold serial dilution method; type: functional
[10] = Antiproliferative activity against human MIAPaCa2 cells after 72 hrs by Celltiter-Glo luminescent cell viability assay; type: functional, cell-based; conditions: MIA PaCa-2, 72 h
Staphylococcus aureus [11] = experiment: Antibacterial activity against Staphylococcus aureus Seattle 1945 ATCC 25923 by two fold serial dilution method; type: functional
NCI-H69 = experiment: Antiproliferative activity against human NCI-H69 cells after 72 hrs by Celltiter-Glo luminescent cell viability assay; type: functional, cell-based; conditions: NCI-H69, 72 h
Acinetobacter baumannii = experiment: Antibacterial activity against Acinetobacter baumannii B5W71 ATCC 15149 by two fold serial dilution method; type: functional
Neisseria gonorrhoeae = experiment: Antibacterial activity against Neisseria gonorrhoeae F-18 ATCC 49226 by two fold serial dilution method; type: functional
[12] = Antibacterial activity against Bacillus anthracis Ames NR-3838 by two fold serial dilution method; type: functional, Bacillus anthracis str. Ames
[13] = Antibacterial activity against Francisella tularensis SCHU S4 NR-643 by two fold serial dilution method; type: functional
[14] = Antiproliferative activity against human UACC62 cells after 72 hrs by Celltiter-Glo luminescent cell viability assay; type: functional, cell-based; conditions: UACC-62, 72 h
[15] = Antibacterial activity against carbapenem-resistant Klebsiella pneumoniae K6 ATCC 700603 by two fold serial dilution method; type: functional, Klebsiella pneumoniae 700603
RL = experiment: Antiproliferative activity against human RL cells after 72 hrs by Celltiter-Glo luminescent cell viability assay; type: functional, cell-based
[16] = Antiproliferative activity against human COLO205 cells after 72 hrs by Celltiter-Glo luminescent cell viability assay; type: functional, cell-based; conditions: COLO 205, 72 h
MCF7 = experiment: Antiproliferative activity against human MCF7 cells after 72 hrs by Celltiter-Glo luminescent cell viability assay; type: functional, cell-based; conditions: MCF7, 72 h
Enterococcus faecalis = experiment: Antibacterial activity against Enterococcus faecalis Portland ATCC 29212 by two fold serial dilution method; type: functional; conditions: ATCC 29212 Portland

Row | SMILES | MIC (Streptococcus pneumoniae) [µM] | MIC [1] [µM] | MIC (Staphylococcus aureus [2]) [µM] | IC50 (CFPAC-1) [µM] | IC50 (A549) [µM] | MIC [3] [µM] | MIC (Pseudomonas aeruginosa) [µM] | MIC (Klebsiella aerogenes) [µM] | IC50 [4] [µM] | IC50 (A498) [µM] | IC50 [5] [µM] | IC50 [6] [µM] | MIC [7] [µM] | MIC [8] [µM] | MIC [9] [µM] | IC50 [10] [µM] | MIC (Staphylococcus aureus [11]) [µM] | IC50 (NCI-H69) [µM] | MIC (Acinetobacter baumannii) [µM] | MIC (Neisseria gonorrhoeae) [µM] | also measured
1 | CN[C@@H](CC(C)C)C(=O)N[C@H]1C(=O)N[C@@H](CC(N)=O)C(=O)N[C@H]2C(=O)N[C@H]3C(=O)N[C@H](C(=O)N[C@@H](C(=O)O)c4cc(O)cc(O)c4-c4cc3ccc4O)[C@H](O)c3ccc(c(Cl)c3)Oc3cc2cc(c3O[C@H]2O[C@@H](CO)[C@H](O)[C@@H](O)[C@@H]2O[C@@H]2C[C@@](C)(N)[C@@H](O)[C@@H](C)O2)Oc2ccc(cc2Cl)[C@H]1O | 1.99 (≈ 2.88 µg/mL) | 0.17 (≈ 0.246 µg/mL) | 2.7 (≈ 3.91 µg/mL) | – | – | – | – | – | – | – | – | – | – | – | – | – | – | – | – | – | –
2 | CC(=O)NCC(=O)N[C@@H](Cc1ccccc1)C(=O)NC1(C(=O)NCC(=O)NC2(C(=O)N[C@@H](CCCCN)C(=O)NC3(C(=O)NCC(=O)NC4(C(=O)N[C@@H](Cc5ccccc5)C(=O)NC5(C(=O)NCC(=O)NC6(C(=O)NCC(=O)N[C@@H](CCCCN)C(=O)NC7(C(=O)N[C@@H](CCCCN)C(=O)N[C@@H](CCCCN)C(=O)N[C@@H](CCCCN)C(=O)N[C@@H](CCCCN)C(N)=O)CCCC7)CCCC6)CCCC5)CCCC4)CCCC3)CCCC2)CCCC1 (Ac-GF[Ac5c]G[Ac5c]K[Ac5c]G[Ac5c]F[Ac5c]G[Ac5c]GK[Ac5c]KKKK-NH2) | > 46 | 1.43 (≈ 3.13 µg/mL) | > 46 | > 7.5 | > 7.5 | 5.71 (≈ 12.5 µg/mL) | 22.9 (≈ 49.9 µg/mL) | > 46 | > 7.5 | > 7.5 | > 7.5 | > 7.5 | > 46 | 11.4 (≈ 25 µg/mL) | > 46 | > 7.5 | > 46 | > 7.5 | 2.86 (≈ 6.25 µg/mL) | 22.9 (≈ 50 µg/mL) | MIC [12]: > 46 µM; MIC [13]: 22.9 µM (≈ 50 µg/mL); IC50 [14]: > 7.5 µM; MIC [15]: > 46 µM; IC50 (RL): > 7.5 µM; IC50 [16]: > 7.5 µM; IC50 (MCF7): > 7.5 µM; MIC (Enterococcus faecalis): > 46 µM
3 | CC(=O)NCC(=O)N[C@@H](Cc1ccccc1)C(=O)NC1(C(=O)NCC(=O)NC2(C(=O)N[C@@H](CCCNC(=N)N)C(=O)NC3(C(=O)NCC(=O)NC4(C(=O)N[C@@H](Cc5ccccc5)C(=O)NC5(C(=O)NCC(=O)NC6(C(=O)NCC(=O)N[C@@H](CCCNC(=N)N)C(=O)NC7(C(=O)N[C@@H](CCCNC(=N)N)C(=O)N[C@@H](CCCNC(=N)N)C(=O)N[C@@H](CCCNC(=N)N)C(=O)N[C@@H](CCCNC(=N)N)C(N)=O)CCCC7)CCCC6)CCCC5)CCCC4)CCCC3)CCCC2)CCCC1 (Ac-GF[Ac5c]G[Ac5c]R[Ac5c]G[Ac5c]F[Ac5c]G[Ac5c]GR[Ac5c]RRRR-NH2) | > 43 | 5.31 (≈ 12.5 µg/mL) | 5.31 (≈ 12.5 µg/mL) | > 7.5 | > 7.5 | 42.4 (≈ 99.9 µg/mL) | 2.65 (≈ 6.24 µg/mL) | > 42.4 | > 7.5 | > 7.5 | > 7.5 | > 7.5 | > 43 | 21.2 (≈ 49.9 µg/mL) | > 43 | > 7.5 | 2.65 (≈ 6.24 µg/mL) | 7.1 | 2.65 (≈ 6.24 µg/mL) | 5.31 (≈ 12.5 µg/mL) | MIC [12]: 2.65 µM (≈ 6.24 µg/mL); MIC [13]: 21.2 µM (≈ 49.9 µg/mL); IC50 [14]: > 7.5 µM; MIC [15]: 5.31 µM (≈ 12.5 µg/mL); IC50 (RL): 3.7 µM; IC50 [16]: > 7.5 µM; IC50 (MCF7): > 7.5 µM; MIC (Enterococcus faecalis): 5.31 µM (≈ 12.5 µg/mL)
4 | CC(=O)NCC(=O)N[C@@H](Cc1ccccc1)C(=O)NC1(C(=O)NCC(=O)NC2(C(=O)N[C@@H](CCCCN)C(=O)NC3(C(=O)NCC(=O)NC4(C(=O)N[C@@H](Cc5ccccc5)C(=O)NC5(C(=O)NCC(=O)NC6(C(=O)NCC(=O)N[C@@H](CCCCN)C(=O)NC7(C(=O)N[C@@H](CCCCN)C(=O)N[C@@H](CCCCN)C(=O)N[C@@H](CCCCN)C(=O)N[C@@H](CCCCN)C(N)=O)CCCC7)CCCCC6)CCCC5)CCCCC4)CCCC3)CCCCC2)CCCC1 (Ac-GF[Ac5c]G[Ac6c]K[Ac5c]G[Ac6c]F[Ac5c]G[Ac6c]GK[Ac5c]KKKK-NH2) | > 45 | 1.4 (≈ 3.12 µg/mL) | > 45 | > 7.5 | > 7.5 | 11.2 (≈ 25 µg/mL) | 5.61 (≈ 12.5 µg/mL) | > 45 | > 7.5 | > 7.5 | > 7.5 | > 7.5 | > 45 | 22.4 (≈ 49.9 µg/mL) | > 45 | > 7.5 | 44.5 (≈ 99.1 µg/mL) | 5.9 | > 45 | 11.2 (≈ 25 µg/mL) | MIC [12]: 22.4 µM (≈ 49.9 µg/mL); MIC [13]: 22.4 µM (≈ 49.9 µg/mL); IC50 [14]: > 7.5 µM; MIC [15]: 44.8 µM (≈ 99.9 µg/mL); IC50 (RL): 6.7 µM; IC50 [16]: > 7.5 µM; IC50 (MCF7): > 7.5 µM; MIC (Enterococcus faecalis): > 45 µM
